Data as given in paper PMC10999543, “Identification of kinase modulators as host-directed therapeutics against intracellular methicillin-resistant Staphylococcus aureus” (Frontiers in Cellular and Infection Microbiology, 2024).
Like-named read-outs stand apart in the source and are kept apart here.

Experiments:
[1] = test system: HeLa cells; experiment: Compound screen by flow cytometry: HeLa cell count as surrogate readout of cell viability (z-scoreHeLa); format: cell-based, human; conditions: for z-scoreHeLa mean: mean of 3 replicates; for z-scoreHeLa rep 1 / cell count rep 1: replicate 1; for z-scoreHeLa rep 2 / cell count rep 2: replicate 2; for z-scoreHeLa rep 3 / cell count rep 3: replicate 3
Experimental: (§1) The cells were resuspended in cell culture medium without antibiotics, seeded with 10,000 cells/well into Costar flat-bottom 96-well plates (Corning, Amsterdam, the Netherlands), and were incubated overnight at 37°C/5% CO2. The next day, the bacteria were centrifuged at ≥1800 g for 15 min and resuspended in cold PBS + 5 mM ethylenediaminetetraacetic acid (EDTA). The number of CFUs present in the bacterial suspension was estimated from the optical density at 600 nm (OD600) by assuming 8x10^8 CFUs to be present in a bacterial suspension with OD600 = 1, based on prior titrations. The bacterial suspension was diluted in cell culture medium without antibiotics and added to the cells. Accuracy of the multiplicity of infection (MOI) was validated by plating serial dilutions of the MRSA inoculums on Difco TS agar plates (BD Biosciences). The calculated mean MOI throughout all experiments was 6.8 ± 4.6 (mean ± SD). Infected cells were centrifuged for 3 min at 150 g and incubated for 1 hour at 37°C/5% CO2. Next, the cells were incubated with fresh cell culture medium supplemented with 30 µg/ml gentamicin sulphate (Lonza BioWhittaker, Basel, Switzerland) for 15 min at 37°C/5% CO2 to kill residual extracellular bacteria. Infected cells were incubated overnight at 37°C/5% CO2 in cell culture medium in the presence of kinase inhibitors and 5 µg/ml gentamicin sulphate-containing medium to prevent the growth of extracellular bacteria. The solvent of the compounds, DMSO, was used at equal % v/v as a negative control. For the screen, each compound was tested in triplicate, on separate cell culture plates, resulting in triplicate values for each kinase inhibitor.
(§2) HeLa cells were harvested by trypsinization and fixed with 1% paraformaldehyde. Samples were measured on a FACSLyric with HTS extension (BD Biosciences). Flow cytometry data were analysed using FlowJo version 10 (TreeStar, Ashland, OR, USA). HeLa cells positive for GFP were gated to calculate the percentage of MRSA-infected cells. The cell count was used as surrogate readout of cell viability.
To minimize the possibility that the presence of extreme values on a plate affected the z-scores, raw values that deviated two-fold from the negative controls were excluded when calculating plate means and standard deviations as used in the aforementioned formula. Compounds were considered a “hit” when z-scoreMRSA+ ≤ -2 and z-scoreHeLa ≥ -3 for cell count. In cases where compounds were screened twice, the average values were used to select hit compounds.

[2] = test system: intracellular MRSA; format: cell-based, Staphylococcus aureus; conditions: for z-scoreMRSA+ mean: mean of 3 replicates; for z-scoreMRSA+ rep 1 / %GFP+ rep 1: replicate 1; for z-scoreMRSA+ rep 2 / %GFP+ rep 2: replicate 2; for z-scoreMRSA+ rep 3 / %GFP+ rep 3: replicate 3
Experimental: as §1, §2
To identify potential “hit” compounds, the flow cytometry data were used to calculate standard z-scores using z = (x-μ)/σ – zneg, where x is total event count or the percent of GFP-positive cells from a single well, μ is the mean from wells of the plate, σ is the standard deviation of the plate and zneg is the mean z-score of the negative control of the plate (i.e., DMSO) ([Korbee et al., 2018]). To minimize the possibility that the presence of extreme values on a plate affected the z-scores, raw values that deviated two-fold from the negative controls were excluded when calculating plate means and standard deviations as used in the aforementioned formula. Compounds were considered a “hit” when z-scoreMRSA+ ≤ -2 and z-scoreHeLa ≥ -3 for cell count. In cases where compounds were screened twice, the average values were used to select hit compounds.

[3] = PKIS compound screen, Yes/No call
[4] = PKIS compounds raw data, HeLa cell count
[5] = PKIS compound screen, Yes/No call (effect without cell death)
[6] = PKIS compounds raw data, MRSA-infected HeLa cells
[7] = PKIS compound screen raw data, HeLa cell count
[8] = compound screen, HeLa cell count
[9] = PKIS compound screen raw data, MRSA-infected HeLa cells
[10] = Yes/No: effect without cell death
[11] = compound screen, MRSA-infected HeLa cells
[12] = PKIS compound screen, HeLa cell count
[13] = PKIS compound screen, Yes/No call on z-scoreHeLa
[14] = PKIS compound screen, MRSA-infected HeLa cells
[15] = PKIS compound screen, Yes/No call on z-scoreMRSA+

Compound | cell death [1, 3] | z-scoreHeLa mean ([1]; PKIS compound screen) | z-scoreHeLa rep 1 ([1]; PKIS compound screen) | z-scoreHeLa rep 2 ([1]; PKIS compound screen) | z-scoreHeLa rep 3 ([1]; PKIS compound screen) | cell count rep 1 [1, 4] | cell count rep 2 [1, 4] | cell count rep 3 [1, 4] | effect [2, 3] | hit [2, 5] | z-scoreMRSA+ mean ([2]; PKIS compound screen) | z-scoreMRSA+ rep 1 ([2]; PKIS compound screen) | z-scoreMRSA+ rep 2 ([2]; PKIS compound screen) | z-scoreMRSA+ rep 3 ([2]; PKIS compound screen) | cell count rep 1 [1, 7] | cell count rep 2 [1, 7] | cell count rep 3 [1, 7] | %GFP+ rep 1 [2, 9] [%] | %GFP+ rep 2 [2, 9] [%] | %GFP+ rep 3 [2, 9] [%] | other results
COc1cc(N2CCN(C(C)C)CC2)ccc1Nc1nc(Nc2ccc(F)cc2C(N)=O)c2cc[nH]c2n1 [GSK1220512A] | No | -0.69 | -0.95 | -0.27 | -0.85 | 3725 | 3908 | 5195 | No | No | 1.45 | 1.80 | 1.41 | 1.13 |  |  |  |  |  |  | %GFP+ rep 1 [2, 6]: 18.8%; %GFP+ rep 2 [2, 6]: 17.7%; %GFP+ rep 3 [2, 6]: 19.7%
COc1ccc(Nc2nccc(-c3ccc(NC(=O)c4cc5cc(F)ccc5[nH]4)cc3)n2)cc1 [GSK1229496A] |  |  |  |  |  |  |  |  |  |  |  |  |  |  | 4195 | 3679 | 5039 | 23.7 | 24.4 | 20.6 | cell death ([1]; Yes/No call from z-scoreHeLa): No; z-scoreHeLa mean [1, 8]: -0.24; z-scoreHeLa rep 1 [1, 8]: -0.11; z-scoreHeLa rep 2 [1, 8]: -0.48; z-scoreHeLa rep 3 [1, 8]: -0.13; effect ([2]; Yes/No call from z-scoreMRSA+): No; hit [2, 10]: No; z-scoreMRSA+ mean [2, 11]: -0.14; z-scoreMRSA+ rep 1 [2, 11]: -0.37; z-scoreMRSA+ rep 2 [2, 11]: 0.43; z-scoreMRSA+ rep 3 [2, 11]: -0.48
NCCCC(NC(=O)c1cc(Br)c(-c2ccnc3[nH]ccc23)s1)c1ccccc1 (stereo not shown) [GSK1287544A] |  |  |  |  |  |  |  |  |  |  |  |  |  |  | 6296 | 6004 | 7754 | 26.9 | 27.6 | 25.5 | cell death ([1]; Yes/No call from z-scoreHeLa): No; z-scoreHeLa mean [1, 8]: 1.43; z-scoreHeLa rep 1 [1, 8]: 1.40; z-scoreHeLa rep 2 [1, 8]: 1.31; z-scoreHeLa rep 3 [1, 8]: 1.59; effect ([2]; Yes/No call from z-scoreMRSA+): No; hit [2, 10]: No; z-scoreMRSA+ mean [2, 11]: 0.86; z-scoreMRSA+ rep 1 [2, 11]: 0.38; z-scoreMRSA+ rep 2 [2, 11]: 1.21; z-scoreMRSA+ rep 3 [2, 11]: 0.99
CC(C(=O)NC1CCN(c2ccnc(Nc3ccc(F)cc3)n2)C1)c1ccc(Cl)cc1 (stereo not shown) [GSK1379713A] |  |  |  |  |  |  |  |  |  |  |  |  |  |  | 6297 | 5528 | 7616 | 27.3 | 23.1 | 24.4 | cell death ([1]; Yes/No call from z-scoreHeLa): No; z-scoreHeLa mean [1, 8]: 1.28; z-scoreHeLa rep 1 [1, 8]: 1.40; z-scoreHeLa rep 2 [1, 8]: 0.94; z-scoreHeLa rep 3 [1, 8]: 1.50; effect ([2]; Yes/No call from z-scoreMRSA+): No; hit [2, 10]: No; z-scoreMRSA+ mean [2, 11]: 0.42; z-scoreMRSA+ rep 1 [2, 11]: 0.47; z-scoreMRSA+ rep 2 [2, 11]: 0.12; z-scoreMRSA+ rep 3 [2, 11]: 0.66
O=C(NC1CCN(c2ccnc(Nc3ccc(F)cc3)n2)C1)c1cc2ccccc2s1 (stereo not shown) [GSK1379716A] | No | -0.43 | -0.58 | -1.00 | 0.28 | 5074 | 4507 | 6035 | No | No | 0.16 | 0.26 | 0.28 | -0.07 | 35239 | 17173 | 16326 | 18.9 | 18.2 | 21.3 | z-scoreHeLa mean [1, 12]: -0.35; z-scoreHeLa rep 1 [1, 12]: 0.85; z-scoreHeLa rep 2 [1, 12]: -1.39; z-scoreHeLa rep 3 [1, 12]: -0.51; cell death [1, 13]: No; z-scoreMRSA+ mean [2, 14]: -0.09; z-scoreMRSA+ rep 1 [2, 14]: 0.0322; z-scoreMRSA+ rep 2 [2, 14]: -0.33; z-scoreMRSA+ rep 3 [2, 14]: 0.0175; effect [2, 15]: No; %GFP+ rep 1 [2, 6]: 28.4%; %GFP+ rep 2 [2, 6]: 27.5%; %GFP+ rep 3 [2, 6]: 26.9%
O=C(Nc1ccccc1F)NC1CCN(c2ccnc(Nc3ccc(F)cc3)n2)C1 (stereo not shown) [GSK1379722A] | No | 0.96 | 1.17 | 0.61 | 1.09 | 7997 | 6922 | 7324 | No | No | 1.11 | 1.04 | 1.28 | 1.01 | 32994 | 39130 | 43503 | 20.2 | 23.8 | 25.6 | z-scoreHeLa mean [1, 12]: 1.08; z-scoreHeLa rep 1 [1, 12]: 1.95; z-scoreHeLa rep 2 [1, 12]: 0.81; z-scoreHeLa rep 3 [1, 12]: 0.47; cell death [1, 13]: No; z-scoreMRSA+ mean [2, 14]: 1.37; z-scoreMRSA+ rep 1 [2, 14]: 0.74; z-scoreMRSA+ rep 2 [2, 14]: 1.59; z-scoreMRSA+ rep 3 [2, 14]: 1.77; effect [2, 15]: No; %GFP+ rep 1 [2, 6]: 32.4%; %GFP+ rep 2 [2, 6]: 32.7%; %GFP+ rep 3 [2, 6]: 32.7%
COc1ccc(CNC(=O)NC2CCN(c3ccnc(Nc4ccc(OC)cc4)n3)C2)cc1 (stereo not shown) [GSK1379727A] | No | 0.68 | 0.99 | 0.43 | 0.62 | 7697 | 6658 | 6574 | No | No | 1.14 | 0.96 | 1.05 | 1.40 |  |  |  |  |  |  | %GFP+ rep 1 [2, 6]: 32.0%; %GFP+ rep 2 [2, 6]: 31.5%; %GFP+ rep 3 [2, 6]: 34.8%
COc1ccc(Nc2nccc(N3CCC(NC(=O)Nc4cccc(C(C)=O)c4)C3)n2)cc1 (stereo not shown) [GSK1379731A] | No | 1.12 | 1.44 | 1.25 | 0.66 | 8450 | 7898 | 6635 | No | No | 0.32 | 0.53 | 0.41 | 0.00589 | 33897 | 29436 | 19502 | 20.9 | 21.1 | 24.3 | z-scoreHeLa mean [1, 12]: 0.48; z-scoreHeLa rep 1 [1, 12]: 0.63; z-scoreHeLa rep 2 [1, 12]: 0.71; z-scoreHeLa rep 3 [1, 12]: 0.11; cell death [1, 13]: No; z-scoreMRSA+ mean [2, 14]: 0.62; z-scoreMRSA+ rep 1 [2, 14]: 0.57; z-scoreMRSA+ rep 2 [2, 14]: 0.46; z-scoreMRSA+ rep 3 [2, 14]: 0.84; effect [2, 15]: No; %GFP+ rep 1 [2, 6]: 29.8%; %GFP+ rep 2 [2, 6]: 28.2%; %GFP+ rep 3 [2, 6]: 27.3%
